The record followed here is patent US12077503B2, “Substituted cyclic amides and their use as herbicides” (FMC CORPORATION, priority 2015, dated 2024).

Common to all, as to type: in vivo
Assay [1] has as its system Kochia (Kochia scoparia). Briefly: Test A preemergence. Particulars: Bassia scoparia, pre-emergence, 240 h; for pest or weed control at 125 g/ha: 125 g ai/ha, Preemergence, visual injury rating after approximately 10 d, read-out: Kochia plant response rating (0 to 100 scale, 0 is no effect, 100 is complete control); for pest or weed control at 500 g/ha: 500 g ai/ha, preemergence, visual injury rating about 10 d after treatment, 0 to 100 scale (0 no effect, 100 complete control), read-out: Kochia plant response rating. A digest of the protocol:
(§1)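 Treatment is preemergence as a directed soil spray after planting, or postemergence at the one- to two-leaf stage, with test chemical in a non-phytotoxic solvent mixture plus surfactant. Plants stay in the greenhouse about 10 d before visual injury scoring on a 0 to 100 scale versus untreated controls.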

The test system of assay [2] is ragweed (common ragweed, Ambrosia elatior). In words: Test A preemergence. The settings on record: Ambrosia artemisiifolia, pre-emergence, 240 h; for pest or weed control at 500 g/ha: 500 g ai/ha, preemergence, visual injury rating about 10 d after treatment, 0 to 100 scale (0 no effect, 100 complete control), read-out: Ragweed plant response rating. A digest of the protocol:
as §1

In assay [3] the test system is giant foxtail (Setaria faberii). Briefly: Test A preemergence. The settings on record: Setaria faberi, pre-emergence, 240 h; for pest or weed control at 125 g/ha: 125 g ai/ha, Preemergence, visual injury rating after approximately 10 d, read-out: Foxtail, Giant plant response rating (0 to 100 scale, 0 is no effect, 100 is complete control); for pest or weed control at 500 g/ha: 500 g ai/ha, preemergence, visual injury rating about 10 d after treatment, 0 to 100 scale (0 no effect, 100 complete control), read-out: Foxtail, Giant plant response rating. A digest of the protocol:
as §1

The subject of assay [4] is barnyardgrass (Echinochloa crus-galli). Briefly: Test A preemergence. The settings on record: Echinochloa crus-galli, pre-emergence, 240 h; for pest or weed control at 125 g/ha: 125 g ai/ha, Preemergence, visual injury rating after approximately 10 d, read-out: Barnyardgrass plant response rating (0 to 100 scale, 0 is no effect, 100 is complete control); for pest or weed control at 500 g/ha: 500 g ai/ha, preemergence, visual injury rating about 10 d after treatment, 0 to 100 scale (0 no effect, 100 complete control), read-out: Barnyardgrass plant response rating. A digest of the protocol:
as §1

Assay [5] relates to pigweed (Amaranthus retroflexus). Briefly: Test A preemergence. Particulars: Amaranthus retroflexus, pre-emergence, 240 h; for pest or weed control at 125 g/ha: 125 g ai/ha, Preemergence, visual injury rating after approximately 10 d, read-out: Pigweed plant response rating (0 to 100 scale, 0 is no effect, 100 is complete control); for pest or weed control at 500 g/ha: 500 g ai/ha, preemergence, visual injury rating about 10 d after treatment, 0 to 100 scale (0 no effect, 100 complete control), read-out: Pigweed plant response rating.

Assay [6] has as its system ryegrass, Italian (Italian ryegrass, Lolium multiflorum). Briefly: Test A preemergence. Particulars: Lolium multiflorum, pre-emergence, 240 h; for pest or weed control at 125 g/ha: 125 g ai/ha, Preemergence, visual injury rating after approximately 10 d, read-out: Ryegrass, Italian plant response rating (0 to 100 scale, 0 is no effect, 100 is complete control); for pest or weed control at 500 g/ha: 500 g ai/ha, preemergence, visual injury rating about 10 d after treatment, 0 to 100 scale (0 no effect, 100 complete control), read-out: Ryegrass, Italian plant response rating. The method, boiled down: as §1

The test system of assay [7] is ducksalad (Heteranthera limosa). Briefly: Test B flooded paddy test. The settings on record: Heteranthera limosa, Flood, 250 g ai/ha; scale of 0 to 100 where 0 is no effect and 100 is complete control; read-out: Ducksalad plant response rating. A digest of the protocol:
(§2)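 Compound goes directly into floodwater once pots are flooded 3 cm above soil, targeting plants at two leaves; the water depth is then held for the test duration. Plants sit 13–15 d in a greenhouse and are rated visually, 100 denoting complete control.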

The test system of assay [8] is sedge, umbrella (small-flower umbrella sedge, Cyperus difformis). Briefly: Test B flooded paddy test. Particulars: Cyperus difformis, Flood, 250 g ai/ha, read-out: Sedge, Umbrella plant response rating. A digest of the protocol: as §2
The test system of the next assay is rice (Oryra sativa). In words: Test B flooded paddy test. Particulars: Oryza sativa, Flood, 250 g ai/ha; scale of 0 to 100 where 0 is no effect and 100 is complete control; read-out: Rice plant response rating. A digest of the protocol: as §2
The test system of assay [9] is barnyardgrass (Echinochloa crus-galli). Briefly: Test B flooded paddy test. Particulars: Echinochloa crus-galli, Flood, 250 g ai/ha; scale of 0 to 100 where 0 is no effect and 100 is complete control; read-out: Barnyardgrass plant response rating. A digest of the protocol:
as §2

The test system of assay [10] is Kochia (Kochia scoparia). In words: Test A postemergence. Particulars: Bassia scoparia, post-emergence, 240 h, 125 g ai/ha, Postemergence; visual injury after approximately 10 d; 0 to 100 scale where 0 is no effect and 100 is complete control; read-out: Plant response rating, Kochia. A digest of the protocol: as §1
The test system of the next assay is corn (Zea mays). Briefly: Test A postemergence. The settings on record: Zea mays, post-emergence, 240 h, 125 g ai/ha, Postemergence; visual injury after approximately 10 d; 0 to 100 scale where 0 is no effect and 100 is complete control. The method, boiled down:
as §1

In assay [11] the test system is ragweed (common ragweed, Ambrosia elatior). In words: Test A postemergence. The settings on record: Ambrosia artemisiifolia, post-emergence, 240 h, 125 g ai/ha, Postemergence; visual injury after approximately 10 d; 0 to 100 scale where 0 is no effect and 100 is complete control; read-out: Plant response rating, Ragweed. The method, boiled down: as §1
Assay [12] deals with wheat (Triticum aestivum). Briefly: Test A postemergence. The settings on record: Triticum aestivum, post-emergence, 240 h, 125 g ai/ha, Postemergence; visual injury after approximately 10 d; 0 to 100 scale where 0 is no effect and 100 is complete control; read-out: Plant response rating, Wheat. The method, boiled down: as §1
In assay [13] the test system is giant foxtail (Setaria faberii). Briefly: Test A postemergence. The settings on record: Setaria faberi, post-emergence, 240 h, 125 g ai/ha, Postemergence; visual injury after approximately 10 d; 0 to 100 scale where 0 is no effect and 100 is complete control; read-out: Plant response rating, Foxtail, Giant. A digest of the protocol:
as §1

Assay [14] deals with blackgrass (Alopecurus myosuroides). In words: Test A postemergence. Particulars: Alopecurus myosuroides, post-emergence, 240 h, 125 g ai/ha, Postemergence; visual injury after approximately 10 d; 0 to 100 scale where 0 is no effect and 100 is complete control; read-out: Plant response rating, Blackgrass. A digest of the protocol:
as §1

The subject of assay [15] is pigweed (Amaranthus retroflexus). Briefly: Test A postemergence. Particulars: Amaranthus retroflexus, post-emergence, 240 h, 125 g ai/ha, Postemergence; visual injury after approximately 10 d; 0 to 100 scale where 0 is no effect and 100 is complete control; read-out: Plant response rating, Pigweed. A digest of the protocol: as §1
The test system of assay [16] is ryegrass, Italian (Italian ryegrass, Lolium multiflorum). In words: Test A postemergence. Particulars: Lolium multiflorum, post-emergence, 240 h, 125 g ai/ha, Postemergence; visual injury after approximately 10 d; 0 to 100 scale where 0 is no effect and 100 is complete control; read-out: Plant response rating, Ryegrass, Italian. The method, boiled down:
as §1

The subject of assay [17] is Galium (catchweed bedstraw, Galium aparine). In words: Test A postemergence. Particulars: Galium, post-emergence, 240 h, 125 g ai/ha, Postemergence; visual injury after approximately 10 d; 0 to 100 scale where 0 is no effect and 100 is complete control; read-out: Plant response rating, Galium. A digest of the protocol:
as §1

For assay [18], the system named is barnyardgrass (Echinochloa crus-galli). In words: Test A postemergence. Particulars: Echinochloa crus-galli, post-emergence, 240 h, 125 g ai/ha, Postemergence; visual injury after approximately 10 d; 0 to 100 scale where 0 is no effect and 100 is complete control; read-out: Plant response rating, Barnyardgrass. The method, boiled down:
as §1

Where two headings read alike, the source gives them in different places.

For the compound `Cc1ccc([C@H]2CN(C)C(=O)[C@@H]2C(=O)Nc2cccc(F)c2C)cc1F` [Compound 982], the pest or weed control at 125 g/ha with Kochia (Kochia scoparia) [1] came to 50%; in assay [3] it was 90%; in assay [4], 90%; in [5], 0%; in assay [6], 90%; in the assay with Kochia (Kochia scoparia) [10], 50%. Further, the pest or weed control at 125 g/ha amounted to 20% in assay [11]; 90% in assay [13]; 70% in [14]; 0% in assay [15]; 60% in assay [16]. The pest or weed control at 500 g/ha with Kochia (Kochia scoparia) [1] turned out to be 90%; in [2] it was 80%; in [3], 100%; in [4], 90%; in [5] it was 50%; in [6], 90%. Moreover, the pest or weed control at 250 g/ha in assay [7] stood at 100%; in [8] (scale of 0 to 100 where 0 is no effect and 100 is complete control) it was 0%; with rice (Oryra sativa), 20%; in assay [9] it was 75%. This compound also returned a Corn plant response rating (crop injury, 0 = no effect, 100 = complete kill) at 125 g/ha with corn (Zea mays) of 60%. In addition, in assay [12], the plant injury at 125 g/ha was 70%.
Turning to `CC(=O)Oc1ccc(NC(=O)[C@H]2C(=O)N(C)C[C@@H]2c2cc(F)cc(F)c2)c(F)c1` [Compound 996], the pest or weed control at 125 g/ha amounted to 0% with Kochia (Kochia scoparia) [1]; 0% in assay [2] (125 g ai/ha, Preemergence, visual injury rating after approximately 10 d, read-out: Ragweed plant response rating (0 to 100 scale, 0 is no effect, 100 is complete control)); 0% in assay [3]; 0% in [4]; 0% in assay [5]; 0% in assay [6]. Moreover, the pest or weed control at 125 g/ha in [17], in assay [11], in [13], in assay [14], in [18] and in [15] was 0% each time. In addition, the pest or weed control at 125 g/ha in [16] worked out at 0%. Further, the pest or weed control at 500 g/ha (in the assay on Kochia (Kochia scoparia) [1]; in assay [2]; in [3]; in assay [4]; in [5]; in assay [6]) was 0% throughout. The pest or weed control at 250 g/ha in assay [7] was 70%; in [8] (0 to 100 scale where 0 is no effect and 100 is complete control), 0%; in the assay on rice (Oryra sativa), 0%; in assay [9], 0%. Moreover, in the assay with corn (Zea mays), the Corn plant response rating (crop injury, 0 = no effect, 100 = complete kill) at 125 g/ha is 0%. In assay [12], the plant injury at 125 g/ha stood at 0%.
